pIC50: −log10 of the molar value.
Target: T1, DNA repair protein RAD51 homolog 1 (Homo sapiens, UniProt Q06609)
T1 sequence (Q06609 whole entry): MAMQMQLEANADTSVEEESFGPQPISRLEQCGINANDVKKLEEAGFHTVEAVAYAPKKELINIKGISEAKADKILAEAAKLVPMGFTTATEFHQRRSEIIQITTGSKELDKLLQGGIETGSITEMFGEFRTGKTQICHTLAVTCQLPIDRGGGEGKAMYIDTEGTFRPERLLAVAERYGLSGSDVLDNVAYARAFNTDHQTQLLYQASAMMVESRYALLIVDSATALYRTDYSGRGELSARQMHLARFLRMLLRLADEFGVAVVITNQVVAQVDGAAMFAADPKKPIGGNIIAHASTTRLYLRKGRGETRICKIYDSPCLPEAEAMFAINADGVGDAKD
Experiment: RAD51 recombination inhibitor potency, dose response, biochemical, homologous recombination, fluorescence (AID 1435)

pIC50: < 4.07
Compound: COC(=O)COc1ccc(S(=O)(=O)NCCC2=CCCCC2)cc1C [methyl [4-({[2-(1-cyclohexen-1-yl)ethyl]amino}sulfonyl)-2-methylphenoxy]acetate]

Source: BindingDB's records for doi:10.7270/Q2BV7F1T (Pcmd, 2008)
